One test has as its target T1, c-kit kinase (Homo sapiens, UniProt P10721).
T1 construct: The c-kit (or kinase domain thereof) is an active kinase in AlphaScreen; poly-Histidine tag (in-house protein only) (cleaved yes); host or cells: E. coli BL21(DE3)RIL, co-expressed with PTP1B
In words: c-Kit biochemical assay, AlphaScreen, 10 μM ATP. The note with it: c-kit biochemical inhibitory activity; read-out: Biochemical activity (IC50 μM) Kit. A digest of the protocol: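 His-tagged c-Kit expressed in E. coli with co-expressed PTP1B (dephosphorylated), tag removed; 0.1 ng per reaction with biotinylated-peptide substrate in 50 mM HEPES pH 7.2, 5 mM MgCl2, 5 mM MnCl2, 5% DMSO, 10 μM ATP, 1 h at room temperature. Phosphorylation detected by AlphaScreen (streptavidin donor, PY20 acceptor beads); IC50 from 8-point 1:3 dilution series.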
In general terms: Alpha assays give light when donor and acceptor beads are brought close together.

The target in a further test is T2, c-kit mutant D816V (Homo sapiens, UniProt P10721, D816V/DEL694-753).
T2 construct: residues 551-934, kinase insertion domain residues 694-753 deleted; 6x-histidine (N); made in house; host or cells: E. coli Arctic Express (DE3) RIL (Stratagene)
In words: c-Kit mutant D816V biochemical assay, AlphaScreen. The note with it: c-kit D816V biochemical inhibitory activity; read-out: Biochemical activity (IC50 μM) Kit D816V. The method in brief: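 Eight-point, threefold compound series incubated 30 min at room temperature with E. coli-produced D816V kinase, 10 μM ATP, Mg2+/Mn2+ HEPES buffer pH 7.2 and 5% DMSO. After EDTA stop, streptavidin and anti-phosphotyrosine (PY20) AlphaScreen beads gave the read-out, and IC50 was fitted from the concentration–signal curve.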

T1 sequence (P10721 26-976): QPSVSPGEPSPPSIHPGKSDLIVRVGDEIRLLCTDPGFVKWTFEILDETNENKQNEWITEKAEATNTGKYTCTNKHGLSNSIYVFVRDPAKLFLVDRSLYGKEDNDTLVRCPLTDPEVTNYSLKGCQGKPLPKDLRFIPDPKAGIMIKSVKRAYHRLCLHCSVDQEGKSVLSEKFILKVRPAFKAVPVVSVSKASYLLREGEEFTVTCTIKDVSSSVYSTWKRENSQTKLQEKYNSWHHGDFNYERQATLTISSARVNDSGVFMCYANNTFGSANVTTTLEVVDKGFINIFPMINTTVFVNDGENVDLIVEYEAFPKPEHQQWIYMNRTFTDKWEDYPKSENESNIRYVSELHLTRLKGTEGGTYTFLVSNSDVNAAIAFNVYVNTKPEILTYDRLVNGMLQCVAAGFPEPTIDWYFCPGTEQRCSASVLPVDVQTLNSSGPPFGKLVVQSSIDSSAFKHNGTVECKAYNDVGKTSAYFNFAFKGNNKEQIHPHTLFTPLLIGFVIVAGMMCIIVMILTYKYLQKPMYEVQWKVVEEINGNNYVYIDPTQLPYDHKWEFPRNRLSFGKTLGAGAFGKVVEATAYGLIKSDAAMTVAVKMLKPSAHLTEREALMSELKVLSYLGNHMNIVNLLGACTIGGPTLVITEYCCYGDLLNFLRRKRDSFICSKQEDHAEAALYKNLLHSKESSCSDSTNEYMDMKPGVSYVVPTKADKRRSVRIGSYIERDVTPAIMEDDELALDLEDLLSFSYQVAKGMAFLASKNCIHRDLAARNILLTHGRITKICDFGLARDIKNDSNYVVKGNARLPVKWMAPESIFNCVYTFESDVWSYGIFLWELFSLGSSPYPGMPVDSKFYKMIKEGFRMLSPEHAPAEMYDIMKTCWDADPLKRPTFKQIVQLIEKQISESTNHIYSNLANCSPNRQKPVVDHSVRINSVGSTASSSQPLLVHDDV
T2 sequence (P10721 with tags, fused parts or gaps DEL694-753/D816V): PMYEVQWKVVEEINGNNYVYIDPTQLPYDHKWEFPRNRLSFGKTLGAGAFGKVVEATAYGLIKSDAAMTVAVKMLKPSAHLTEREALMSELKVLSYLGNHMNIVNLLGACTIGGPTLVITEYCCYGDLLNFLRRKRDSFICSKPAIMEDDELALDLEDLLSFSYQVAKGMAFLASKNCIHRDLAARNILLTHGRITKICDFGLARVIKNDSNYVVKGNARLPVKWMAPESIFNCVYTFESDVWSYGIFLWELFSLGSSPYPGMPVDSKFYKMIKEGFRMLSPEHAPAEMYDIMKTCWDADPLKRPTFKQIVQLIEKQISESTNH

Usually IC50 stands for the concentration that gives 50% inhibition. Take `NC(=O)c1cccc(-c2cc3c(N4CCN(C(=O)NCc5ccc(F)cc5)CC4)ncnc3[nH]2)c1` [P-0108, 4-[6-(3-carbamoylphenyl)-7H-pyrrolo[2,3-d]pyrimidin-4-yl]-N-[(4-fluorophenyl)methyl]piperazine-1-carboxamide]: the IC50 at c-kit kinase is 1 to 10 µM; at c-kit mutant D816V, 0.0001 to 1 µM.
With `N#Cc1ccc(-c2cc3c(N4CCN(C(=O)NCc5ccc(F)cc5)CC4)ncnc3[nH]2)cc1` [P-0109, 4-[6-(4-cyanophenyl)-7H-pyrrolo[2,3-d]pyrimidin-4-yl]-N-[(4-fluorophenyl)methyl]piperazine-1-carboxamide], the figures for the IC50 at c-kit kinase and on c-kit mutant D816V were 10 to 200 µM and 1 to 10 µM, respectively.
For the molecule `N#Cc1cccc(-c2cc3c(N4CCN(C(=O)NCc5ccc(F)cc5)CC4)ncnc3[nH]2)c1` [P-0110, 4-[6-(3-cyanophenyl)-7H-pyrrolo[2,3-d]pyrimidin-4-yl]-N-[(4-fluorophenyl)methyl]piperazine-1-carboxamide], the IC50 is 10 to 200 µM at c-kit kinase and 1 to 10 µM at c-kit mutant D816V.
In the same order, the values of `O=C(Nc1ccc(OC(F)(F)F)cc1)N1CCN(c2ncnc3[nH]c(-c4ccc(C5CC5)nc4)cc23)CC1` [P-0111, 4-[6-(6-cyclopropyl-3-pyridyl)-7H-pyrrolo[2,3-d]pyrimidin-4-yl]-N-[4-(trifluoromethoxy)phenyl]piperazine-1-carboxamide] are 1 to 10 µM and 10 to 200 µM.
In the same order, the values of `O=C(Nc1ccc(OC(F)(F)F)cc1)N1CCN(c2ncnc3[nH]c(-c4cnc(C5CC5)nc4)cc23)CC1` [P-0112, 4-[6-(2-cyclopropylpyrimidin-5-yl)-7H-pyrrolo[2,3-d]pyrimidin-4-yl]-N-[4-(trifluoromethoxy)phenyl]piperazine-1-carboxamide] are 1 to 10 µM and 10 to 200 µM.
In the same order, the values of `N#CC1(c2ccc(-c3cc4c(N5CCN(C(=O)Nc6ccc(OC(F)(F)F)cc6)CC5)ncnc4[nH]3)cc2)CC1` [P-0113, 4-[6-[4-(1-cyanocyclopropyl)phenyl]-7H-pyrrolo[2,3-d]pyrimidin-4-yl]-N-[4-(trifluoromethoxy)phenyl]piperazine-1-carboxamide] are 0.0001 to 1 µM and 1 to 10 µM.
Take `CN(C)c1ccc(-c2cc3c(N4CCN(C(=O)Nc5ccc(OC(F)(F)F)cc5)CC4)ncnc3[nH]2)cn1` [P-0114, 4-[6-[6-(dimethylamino)-3-pyridyl]-7H-pyrrolo[2,3-d]pyrimidin-4-yl]-N-[4-(trifluoromethoxy)phenyl]piperazine-1-carboxamide]: the IC50 was 0.0001 to 1 µM at c-kit kinase and 1 to 10 µM on c-kit mutant D816V.
Take `Cc1ccc(-c2cc3c(N4CCN(C(=O)Nc5ccc(OC(F)(F)F)cc5)CC4)ncnc3[nH]2)cn1` [P-0115, 4-[6-(6-methyl-3-pyridyl)-7H-pyrrolo[2,3-d]pyrimidin-4-yl]-N-[4-(trifluoromethoxy)phenyl]piperazine-1-carboxamide]: the results for the IC50 on c-kit kinase and at c-kit mutant D816V were 0.0001 to 1 µM and 10 to 200 µM, respectively.
In the same order, the values of `CNC(=O)c1cccc(-c2cc3c(N4CCN(C(=O)Nc5ccc(OC(F)(F)F)cc5)CC4)ncnc3[nH]2)c1` [P-0116, 4-[6-[3-(methylcarbamoyl)phenyl]-7H-pyrrolo[2,3-d]pyrimidin-4-yl]-N-[4-(trifluoromethoxy)phenyl]piperazine-1-carboxamide] are 0.0001 to 1 µM and 10 to 200 µM.
In the same order, the values of `COc1cc(-c2cc3c(N4CCN(C(=O)Nc5ccc(OC(F)(F)F)cc5)CC4)ncnc3[nH]2)ccn1` [P-0117, 4-[6-(2-methoxy-4-pyridyl)-7H-pyrrolo[2,3-d]pyrimidin-4-yl]-N-[4-(trifluoromethoxy)phenyl]piperazine-1-carboxamide] are 0.0001 to 1 µM and 10 to 200 µM.
In the same order, the values of `COc1ccc(-c2cc3c(N4CCN(C(=O)Nc5ccc(OC(F)(F)F)cc5)CC4)ncnc3[nH]2)cn1` [P-0118, 4-[6-(6-methoxy-3-pyridyl)-7H-pyrrolo[2,3-d]pyrimidin-4-yl]-N-[4-(trifluoromethoxy)phenyl]piperazine-1-carboxamide] are 0.0001 to 1 µM and 10 to 200 µM.
Turning to `CS(=O)(=O)Nc1cccc(-c2cc3c(N4CCN(C(=O)Nc5ccc(OC(F)(F)F)cc5)CC4)ncnc3[nH]2)c1` [P-0119, 4-[6-[3-(methanesulfonamido)phenyl]-7H-pyrrolo[2,3-d]pyrimidin-4-yl]-N-[4-(trifluoromethoxy)phenyl]piperazine-1-carboxamide], the results for the IC50 on c-kit kinase and on c-kit mutant D816V were 0.0001 to 1 µM and 1 to 10 µM, respectively.
In the same order, the values of `CC(=O)Nc1cccc(-c2cc3c(N4CCN(C(=O)Nc5ccc(OC(F)(F)F)cc5)CC4)ncnc3[nH]2)c1` [P-0120, 4-[6-(3-acetamidophenyl)-7H-pyrrolo[2,3-d]pyrimidin-4-yl]-N-[4-(trifluoromethoxy)phenyl]piperazine-1-carboxamide] are 0.0001 to 1 µM and 1 to 10 µM.
The like results for `N#Cc1cccc(-c2cc3c(N4CCN(C(=O)Nc5ccc(OC(F)(F)F)cc5)CC4)ncnc3[nH]2)c1` [P-0121, 4-[6-(3-cyanophenyl)-7H-pyrrolo[2,3-d]pyrimidin-4-yl]-N-[4-(trifluoromethoxy)phenyl]piperazine-1-carboxamide] were, in that order, 10 to 200 µM and 10 to 200 µM.
In the same order, the values of `O=C(NCc1ccc(Cl)cn1)N1CCN(c2ncnc3[nH]c(-c4cccnc4)cc23)CC1` [P-0123, N-[(5-chloro-2-pyridyl)methyl]-4-[6-(3-pyridyl)-7H-pyrrolo[2,3-d]pyrimidin-4-yl]piperazine-1-carboxamide] are 0.0001 to 1 µM and 0.0001 to 1 µM.
On to `O=C(Nc1ccc(OC(F)F)cc1)N1CCN(c2ncnc3[nH]c(-c4ccc(F)cc4)cc23)CC1` [P-0125, N-[4-(difluoromethoxy)phenyl]-4-[6-(4-fluorophenyl)-7H-pyrrolo[2,3-d]pyrimidin-4-yl]piperazine-1-carboxamide], for which the IC50 at c-kit kinase is 0.0001 to 1 µM; at c-kit mutant D816V it was 1 to 10 µM.
For `COc1cc(CNC(=O)N2CCN(c3ncnc4[nH]c(-c5cccnc5)cc34)CC2)ccn1` [P-0127, N-[(2-methoxy-4-pyridyl)methyl]-4-[6-(3-pyridyl)-7H-pyrrolo[2,3-d]pyrimidin-4-yl]piperazine-1-carboxamide], the IC50 lay within 10 to 200 µM at c-kit kinase and 1 to 10 µM on c-kit mutant D816V.
As for `COc1cccc(CNC(=O)N2CCN(c3ncnc4[nH]c(-c5cccnc5)cc34)CC2)n1` [P-0128, N-[(6-methoxy-2-pyridyl)methyl]-4-[6-(3-pyridyl)-7H-pyrrolo[2,3-d]pyrimidin-4-yl]piperazine-1-carboxamide], the values for the IC50 on c-kit kinase and on c-kit mutant D816V were 10 to 200 µM and 1 to 10 µM, respectively.
The like results for `NC(=O)N1CCN(c2ncnc3[nH]c(-c4cccnc4)cc23)CC1` [P-0130, 4-[6-(3-pyridyl)-7H-pyrrolo[2,3-d]pyrimidin-4-yl]piperazine-1-carboxamide] were, in that order, 10 to 200 µM and 1 to 10 µM.
`O=C(NCc1cncc(F)c1)N1CCN(c2ncnc3[nH]c(-c4ccc(F)cc4)cc23)CC1` [P-0131, 4-[6-(4-fluorophenyl)-7H-pyrrolo[2,3-d]pyrimidin-4-yl]-N-[(5-fluoro-3-pyridyl)methyl]piperazine-1-carboxamide]: the IC50 at c-kit kinase and on c-kit mutant D816V was 1 to 10 µM throughout.
On to `O=C(Nc1ccc(OC(F)(F)F)cc1)N1CCN(c2ncnc3[nH]c(-c4ccc(F)cc4)cc23)CC1` [P-0133, 4-[6-(4-fluorophenyl)-7H-pyrrolo[2,3-d]pyrimidin-4-yl]-N-[4-(trifluoromethoxy)phenyl]piperazine-1-carboxamide], for which the IC50 at c-kit kinase lay in the range of 0.0001 to 1 µM; on c-kit mutant D816V, 1 to 10 µM.
The like results for `O=C(Nc1ccc(OC(F)(F)F)cc1)N1CCN(c2ncnc3[nH]c(-c4ccc(Cl)cc4)cc23)CC1` [P-0134, 4-[6-(4-chlorophenyl)-7H-pyrrolo[2,3-d]pyrimidin-4-yl]-N-[4-(trifluoromethoxy)phenyl]piperazine-1-carboxamide] were, in that order, 0.0001 to 1 µM and 1 to 10 µM.
In the same order, the values of `O=C(NCc1ccc(F)cc1)N1CCN(c2ncnc3[nH]cc(CC4CC4)c23)CC1` [P-0137, 4-[5-(cyclopropylmethyl)-7H-pyrrolo[2,3-d]pyrimidin-4-yl]-N-[(4-fluorophenyl)methyl]piperazine-1-carboxamide] are 10 to 200 µM and 1 to 10 µM.
Regarding `COc1cccc([C@H](C)NC(=O)N2CCN(c3ncnc4[nH]c(-c5ccc(F)cc5)cc34)CC2)c1` [P-0144, 4-[6-(4-fluorophenyl)-7H-pyrrolo[2,3-d]pyrimidin-4-yl]-N-[(1S)-1-(3-methoxyphenyl)ethyl]piperazine-1-carboxamide], the values for the IC50 at c-kit kinase and at c-kit mutant D816V were 1 to 10 µM and 0.0001 to 1 µM, respectively.
In the same order, the values of `COc1cccc([C@@H](C)NC(=O)N2CCN(c3ncnc4[nH]c(-c5ccc(F)cc5)cc34)CC2)c1` [P-0149, 4-[6-(4-fluorophenyl)-7H-pyrrolo[2,3-d]pyrimidin-4-yl]-N-[(1R)-1-(3-methoxyphenyl)ethyl]piperazine-1-carboxamide] are 10 to 200 µM and 10 to 200 µM.
The like results for `N#Cc1cc2c(N3CCN(C(=O)NCc4ccc(F)cc4)CC3)ncnc2[nH]1` [P-0150, 4-(6-cyano-7H-pyrrolo[2,3-d]pyrimidin-4-yl)-N-[(4-fluorophenyl)rnethyl]piperazine-1-carboxamide] were, in that order, 10 to 200 µM and 10 to 200 µM.

These data come from patent US10227357B2, “Compounds and methods for kinase modulation, and indications therefor” (Plexxikon Inc., priority 2012, dated 2019).
